{
  "source": "paper PMC9154192",
  "about": "(PLoS Biology, 2022)",
  "key": {"[1]": {"tested_on": "M. tuberculosis H37Rv", "type": "cell-based, Mycobacterium tuberculosis", "conditions": "for RFU/200 μl (replicates1-3), single values / RFU/ml (×104) / RFU/200 μl (average): Fig 2A"}, "[2]": {"assay": "Acute oral toxicity test in mice", "type": "in vivo, BALB/c mice", "conditions": "single oral, 5 mice; for Deaths of mice, Days after dosing 0: day 0; for Deaths of mice, Days after dosing 1: day 1; for Deaths of mice, Days after dosing 2: day 2; for Deaths of mice, Days after dosing 3: day 3; for Deaths of mice, Days after dosing 4: day 4; for Deaths of mice, Days after dosing 5: day 5; for Deaths of mice, Days after dosing 6: day 6; for Deaths of mice, Days after dosing 7: day 7; for Deaths of mice, Days after dosing 8: day 8; for Deaths of mice, Days after dosing 9: day 9; for Deaths of mice, Days after dosing 10: day 10; for Deaths of mice, Days after dosing 11: day 11; for Deaths of mice, Days after dosing 12: day 12; for Deaths of mice, Days after dosing 13: day 13; for Deaths of mice, Days after dosing 14: day 14", "description": "This experiment was conducted in a toxicity test at Soonchunhyang University's Animal Biological Safety Level 2 (ABSL-2) facility. The study protocol was reviewed and approved by Soonchunhyang University Animal Ethics Committee. Six-week-old female BALB/c were purchased from Koatech (Pyeongtaek, Korea) and five mice per group were tested. Drugs were orally administered once using a zonde and observed for two weeks. Corn oil (Sigma, USA) was used as the vehicle."}, "[3]": {"type": "in vivo, Crl:CD SD rats", "conditions": "single oral dose up to 2,000 mg/kg, SD rats, 2 weeks", "description": "Toxicity studies were conducted at Biotoxtech (Korea) under review and approval from IACUC (170842, 180144, 170889) of Biotoxtech. All animals used in the toxicity test were purchased from OrientBio (Korea).\nFor acute toxicity study with a single oral administration, 6-week-old Crl:CD SD rats were used. For PP1S, a total of 8 groups (n = 4 rats/group) were used (0, 500, 1,000, and 2,000 mg/kg for females and males, respectively). For PP2S, a total of 4 groups (n = 5 rats/group) were used (0 and 2,000 mg/kg for females and males, respectively). […] Corn oil (Sigma, USA) was used as the vehicle. Control animals were treated only with the same volume of the vehicle."}, "[4]": {"tested_on": "XDR M. tuberculosis", "type": "cell-based, Mycobacterium tuberculosis"}},
  "note": "Values joined by “and” are separate entries in the source; they are usually repeats but may differ in a detail not shown here. Identical values can stand only once. Like-named read-outs stand apart in the source and are kept apart here.",
  "data": [
    {"compound": "CCCCOc1ccc2cc(CN3C(=O)CC[C@H]3C(=O)OC)c3cc(OC)c(OC)cc3c2c1", "note": "[PP2S, Methyl (S)-1-((3-butoxy-6,7-dimethoxyphenanthren-9-yl)methyl)-5-oxopyrrolidine-2-carboxylate]", "values": [
      {"measurement": "RFU/200 μl (replicates1-3), single values", "setting": "[1]; drug conc. 0.39", "result": "54850 RFU/200 μl and 54820 RFU/200 μl and 52200 RFU/200 μl and 52110 RFU/200 μl and 58720 RFU/200 μl and 54260 RFU/200 μl and 54210 RFU/200 μl and 54470 RFU/200 μl and 54870 RFU/200 μl"},
      {"measurement": "RFU/ml (×104)", "setting": "[1]; drug conc. 0.39", "result": "27.3 RFU/ml (×104)"},
      {"measurement": "RFU/200 μl (average)", "setting": "[1]; drug conc. 0.39, average of each replicate set", "result": "54343 RFU/200 μl and 54313 RFU/200 μl and 54847 RFU/200 μl"},
      {"measurement": "RFU/200 μl (replicates1-3), single values", "setting": "[1]; drug conc. 0.78", "result": "20330 RFU/200 μl and 20390 RFU/200 μl and 21500 RFU/200 μl and 21380 RFU/200 μl and 21640 RFU/200 μl and 20670 RFU/200 μl and 20960 RFU/200 μl and 20360 RFU/200 μl and 20370 RFU/200 μl"},
      {"measurement": "RFU/ml (×104)", "setting": "[1]; drug conc. 0.78", "result": "10.4 RFU/ml (×104)"},
      {"measurement": "RFU/200 μl (average)", "setting": "[1]; drug conc. 0.78, average of each replicate set", "result": "21507 RFU/200 μl and 20663 RFU/200 μl and 20363 RFU/200 μl"},
      {"measurement": "RFU/200 μl (replicates1-3), single values", "setting": "[1]; drug conc. 1.56", "result": "8330 RFU/200 μl (2×) and 8470 RFU/200 μl and 8750 RFU/200 μl and 8670 RFU/200 μl and 8690 RFU/200 μl and 8240 RFU/200 μl and 8320 RFU/200 μl and 8390 RFU/200 μl"},
      {"measurement": "RFU/ml (×104)", "setting": "[1]; drug conc. 1.56", "result": "4.2 RFU/ml (×104)"},
      {"measurement": "RFU/200 μl (average)", "setting": "[1]; drug conc. 1.56, average of each replicate set", "result": "8703 RFU/200 μl and 8297 RFU/200 μl and 8397 RFU/200 μl"},
      {"measurement": "concentration with significant antitubercular effect", "setting": "[1]; fluorescence-based assay", "result": "1.56 µg/mL and 0.78 µg/mL"},
      {"measurement": "Deaths of mice, Days after dosing 0", "setting": "[2]; Dose 500 mg/kg", "result": 0},
      {"measurement": "Deaths of mice, Days after dosing 1", "setting": "[2]; Dose 500 mg/kg", "result": 0},
      {"measurement": "Deaths of mice, Days after dosing 2", "setting": "[2]; Dose 500 mg/kg", "result": 0},
      {"measurement": "Deaths of mice, Days after dosing 3", "setting": "[2]; Dose 500 mg/kg", "result": 0},
      {"measurement": "Deaths of mice, Days after dosing 4", "setting": "[2]; Dose 500 mg/kg", "result": 0},
      {"measurement": "Deaths of mice, Days after dosing 5", "setting": "[2]; Dose 500 mg/kg", "result": 0},
      {"measurement": "Deaths of mice, Days after dosing 6", "setting": "[2]; Dose 500 mg/kg", "result": 0},
      {"measurement": "Deaths of mice, Days after dosing 7", "setting": "[2]; Dose 500 mg/kg", "result": 0},
      {"measurement": "Deaths of mice, Days after dosing 8", "setting": "[2]; Dose 500 mg/kg", "result": 0},
      {"measurement": "Deaths of mice, Days after dosing 9", "setting": "[2]; Dose 500 mg/kg", "result": 0},
      {"measurement": "Deaths of mice, Days after dosing 10", "setting": "[2]; Dose 500 mg/kg", "result": 0},
      {"measurement": "Deaths of mice, Days after dosing 11", "setting": "[2]; Dose 500 mg/kg", "result": 0},
      {"measurement": "Deaths of mice, Days after dosing 12", "setting": "[2]; Dose 500 mg/kg", "result": 0},
      {"measurement": "Deaths of mice, Days after dosing 13", "setting": "[2]; Dose 500 mg/kg", "result": 0},
      {"measurement": "Deaths of mice, Days after dosing 14", "setting": "[2]; Dose 500 mg/kg", "result": 0},
      {"measurement": "Deaths of mice, Days after dosing 0", "setting": "[2]; Dose 1000 mg/kg", "result": 0},
      {"measurement": "Deaths of mice, Days after dosing 1", "setting": "[2]; Dose 1000 mg/kg", "result": 0},
      {"measurement": "Deaths of mice, Days after dosing 2", "setting": "[2]; Dose 1000 mg/kg", "result": 0},
      {"measurement": "Deaths of mice, Days after dosing 3", "setting": "[2]; Dose 1000 mg/kg", "result": 0},
      {"measurement": "Deaths of mice, Days after dosing 4", "setting": "[2]; Dose 1000 mg/kg", "result": 0},
      {"measurement": "Deaths of mice, Days after dosing 5", "setting": "[2]; Dose 1000 mg/kg", "result": 0},
      {"measurement": "Deaths of mice, Days after dosing 6", "setting": "[2]; Dose 1000 mg/kg", "result": 0},
      {"measurement": "Deaths of mice, Days after dosing 7", "setting": "[2]; Dose 1000 mg/kg", "result": 0},
      {"measurement": "Deaths of mice, Days after dosing 8", "setting": "[2]; Dose 1000 mg/kg", "result": 0},
      {"measurement": "Deaths of mice, Days after dosing 9", "setting": "[2]; Dose 1000 mg/kg", "result": 0},
      {"measurement": "Deaths of mice, Days after dosing 10", "setting": "[2]; Dose 1000 mg/kg", "result": 0},
      {"measurement": "Deaths of mice, Days after dosing 11", "setting": "[2]; Dose 1000 mg/kg", "result": 0},
      {"measurement": "Deaths of mice, Days after dosing 12", "setting": "[2]; Dose 1000 mg/kg", "result": 0},
      {"measurement": "Deaths of mice, Days after dosing 13", "setting": "[2]; Dose 1000 mg/kg", "result": 0},
      {"measurement": "Deaths of mice, Days after dosing 14", "setting": "[2]; Dose 1000 mg/kg", "result": 0},
      {"measurement": "Deaths of mice, Days after dosing 0", "setting": "[2]; Dose 2000 mg/kg", "result": 0},
      {"measurement": "Deaths of mice, Days after dosing 1", "setting": "[2]; Dose 2000 mg/kg", "result": 0},
      {"measurement": "Deaths of mice, Days after dosing 2", "setting": "[2]; Dose 2000 mg/kg", "result": 0},
      {"measurement": "Deaths of mice, Days after dosing 3", "setting": "[2]; Dose 2000 mg/kg", "result": 0},
      {"measurement": "Deaths of mice, Days after dosing 4", "setting": "[2]; Dose 2000 mg/kg", "result": 0},
      {"measurement": "Deaths of mice, Days after dosing 5", "setting": "[2]; Dose 2000 mg/kg", "result": 0},
      {"measurement": "Deaths of mice, Days after dosing 6", "setting": "[2]; Dose 2000 mg/kg", "result": 0},
      {"measurement": "Deaths of mice, Days after dosing 7", "setting": "[2]; Dose 2000 mg/kg", "result": 0},
      {"measurement": "Deaths of mice, Days after dosing 8", "setting": "[2]; Dose 2000 mg/kg", "result": 0},
      {"measurement": "Deaths of mice, Days after dosing 9", "setting": "[2]; Dose 2000 mg/kg", "result": 0},
      {"measurement": "Deaths of mice, Days after dosing 10", "setting": "[2]; Dose 2000 mg/kg", "result": 0},
      {"measurement": "Deaths of mice, Days after dosing 11", "setting": "[2]; Dose 2000 mg/kg", "result": 0},
      {"measurement": "Deaths of mice, Days after dosing 12", "setting": "[2]; Dose 2000 mg/kg", "result": 0},
      {"measurement": "Deaths of mice, Days after dosing 13", "setting": "[2]; Dose 2000 mg/kg", "result": 0},
      {"measurement": "Deaths of mice, Days after dosing 14", "setting": "[2]; Dose 2000 mg/kg", "result": 0},
      {"measurement": "change in body weight compared to control group", "setting": "[3]", "result": "no significant change"},
      {"measurement": "clinical symptoms and death", "setting": "[3]", "result": "not observed"},
      {"measurement": "growth of M. tuberculosis in macrophages (CFU)", "setting": "[4]", "result": "significantly inhibited the growth"}
    ]}
  ]
}
